Test results: the supplement of paper PMC10307832

Tests used:
Assay in all cases: relative viability (nuclei count vs DMSO), 5 days (fraction); higher = more cells survive
[1] = test system: 201T
How it was run: (§1)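 Five library-drug doses in √10 steps were combined with a fixed anchor-drug dose, or a single drug was given alone, by pin tool to lung cancer cell lines in 1536-well plates the day after seeding. Nuclei were stained and counted after 5 days. Relative viability is the nuclei count in treated wells over that in vehicle wells, taken as the median of duplicate plates.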

[2] = test system: BEN
How it was run: as §1

[3] = test system: CAL-12T
How it was run: as §1

[4] = test system: HCC-827
How it was run: as §1

[5] = test system: HOP-62
How it was run: as §1

[6] = test system: LCLC-103H
How it was run: as §1

[7] = test system: LCLC-97TM1
How it was run: as §1

[8] = test system: LXF-289
How it was run: as §1

[9] = test system: NCI-H1395
How it was run: as §1

[10] = test system: NCI-H1437
How it was run: as §1

[11] = test system: NCI-H1650
How it was run: as §1

`NC(=O)Nc1cc(-c2cccc(F)c2)sc1C(=O)N[C@H]1CCCNC1` [AZD7762] + Cc1nc(Nc2ncc(C(=O)Nc3c(C)cccc3Cl)s2)cc(N2CCN(CCO)CC2)n1 [Dasatinib] (partner 0.075 µM) was tested, and the relative viability ([1]; first compound 0.01 µM) was 0.592, the relative viability ([1]; first compound 0.03162 µM) was 0.584 and the relative viability ([1]; first compound 0.1 µM) was 0.602. For the same molecule, the relative viability ([1]; first compound 0.3162 µM) was 0.567, the relative viability ([1]; first compound 1 µM) was 0.473 and the relative viability ([2]; first compound 0.01 µM) was 0.253. It also gave a relative viability ([2]; first compound 0.03162 µM) of 0.297, a relative viability ([2]; first compound 0.1 µM) of 0.282 and a relative viability ([2]; first compound 0.3162 µM) of 0.301. It also gave a relative viability ([2]; first compound 1 µM) of 0.328, a relative viability ([3]; first compound 0.01 µM) of 0.637 and a relative viability ([3]; first compound 0.03162 µM) of 0.463. It also gave a relative viability ([3]; first compound 0.1 µM) of 0.47, a relative viability ([3]; first compound 0.3162 µM) of 0.23 and a relative viability ([3]; first compound 1 µM) of 0.0827. For the same molecule, the relative viability ([4]; first compound 0.01 µM) was 0.418, the relative viability ([4]; first compound 0.03162 µM) was 0.335 and the relative viability ([4]; first compound 0.1 µM) was 0.302. It also gave a relative viability ([4]; first compound 0.3162 µM) of 0.31, a relative viability ([4]; first compound 1 µM) of 0.186 and a relative viability ([5]; first compound 0.01 µM) of 0.727. The relative viability ([5]; first compound 0.03162 µM) was 0.72, the relative viability ([5]; first compound 0.1 µM) was 0.682 and the relative viability ([5]; first compound 0.3162 µM) was 0.623. It also gave a relative viability ([5]; first compound 1 µM) of 0.341, a relative viability ([6]; first compound 0.01 µM) of 0.555 and a relative viability ([6]; first compound 0.03162 µM) of 0.463. For the same molecule, the relative viability ([6]; first compound 0.1 µM) was 0.422, the relative viability ([6]; first compound 0.3162 µM) was 0.515 and the relative viability ([6]; first compound 1 µM) was 0.284. For the same molecule, the relative viability ([7]; first compound 0.01 µM) was 0.913, the relative viability ([7]; first compound 0.03162 µM) was 0.802 and the relative viability ([7]; first compound 0.1 µM) was 0.778. It also gave a relative viability ([7]; first compound 0.3162 µM) of 0.572, a relative viability ([7]; first compound 1 µM) of 0.447 and a relative viability ([8]; first compound 0.01 µM) of 0.225. The relative viability ([8]; first compound 0.03162 µM) was 0.245, the relative viability ([8]; first compound 0.1 µM) was 0.219 and the relative viability ([8]; first compound 0.3162 µM) was 0.187. For the same molecule, the relative viability ([8]; first compound 1 µM) was 0.211, the relative viability ([9]; first compound 0.01 µM) was 0.449 and the relative viability ([9]; first compound 0.03162 µM) was 0.424. It also gave a relative viability ([9]; first compound 0.1 µM) of 0.427, a relative viability ([9]; first compound 0.3162 µM) of 0.371 and a relative viability ([9]; first compound 1 µM) of 0.302. The relative viability ([10]; first compound 0.01 µM) was 0.346, the relative viability ([10]; first compound 0.03162 µM) was 0.586 and the relative viability ([10]; first compound 0.1 µM) was 0.427. The relative viability ([10]; first compound 0.3162 µM) was 0.286, the relative viability ([10]; first compound 1 µM) was 0.307 and the relative viability ([11]; first compound 0.01 µM) was 0.313. It also gave a relative viability ([11]; first compound 0.03162 µM) of 0.311, a relative viability ([11]; first compound 0.1 µM) of 0.314 and a relative viability ([11]; first compound 0.3162 µM) of 0.264. It also gave a relative viability ([11]; first compound 1 µM) of 0.19.
